Changes are numbered by the printed parent chain.
Key:
[1] = molecular target: T1, TREK-1^CG* (Mus musculus, UniProt P97438, S146C); experiment: Resting membrane potential, current-clamp (I=0) in HEK293 cells; format: cell-based; conditions: 20 μM CAT335
T1 construct: expressed in transfected cells; host or cells: HEK293 (pIRES2-EGFP vector)
T1 sequence (P97438 1-411 isoform P97438-2 S131C): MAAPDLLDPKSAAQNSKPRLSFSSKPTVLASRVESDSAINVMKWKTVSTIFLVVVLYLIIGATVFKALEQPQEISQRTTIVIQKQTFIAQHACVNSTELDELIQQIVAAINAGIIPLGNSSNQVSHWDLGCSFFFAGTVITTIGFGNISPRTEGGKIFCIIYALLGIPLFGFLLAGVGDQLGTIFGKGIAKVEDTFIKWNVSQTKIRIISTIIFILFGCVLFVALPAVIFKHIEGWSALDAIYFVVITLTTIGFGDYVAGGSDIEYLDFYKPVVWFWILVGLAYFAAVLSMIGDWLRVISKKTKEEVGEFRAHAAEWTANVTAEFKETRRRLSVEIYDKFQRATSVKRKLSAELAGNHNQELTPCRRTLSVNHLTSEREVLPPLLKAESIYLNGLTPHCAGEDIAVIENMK
Excerpt: (§1) Mouse K2P2.1 (TREK-1) (Genbank accession number: NP_034737.2), mouse K2P10.1 (TREK-2) (NM_001316665.1), mouse K2P4.1 (TRAAK) (NM_008431.3), human K2P4.1 (TRAAK) (NM_033310.2) and mouse K2P18.1(TRESK) (NM_207261.3) were used for this study. Point mutations were introduced by site-directed mutagenesis using custom primers and confirmed by sequencing before use. For studies using Xenopus oocytes, K2P channels were subcloned into a previously reported pGEMHE/pMO vector (46). For expression in HEK293 cells, mouse K2P2.1 (TREK-1) and mutants were expressed from a previously described pIRES2-EGFP vector in HEK293 cells (46,47). K2P2.1 (TREK-1) tandems were constructed by connecting the open reading frames for the individual subunits with a linker encoding the […] (SEQ ID NO: 19) sequence. Tandems used for HEK293 cells included an N-terminal HA tag ([…] (SEQ ID NO: 20)) on the first subunit.
(§2) 50% confluent cells were co-transfected (in 35-mm diameter wells) with 10-100 ng of the K2P2.1 plasmid and 400 ng of an eGFP plasmid (for visualization) using LipofectAMINE 2000 (Invitrogen) for 24 h, after which the cells were either plated onto coverslips or the media exchanged with fresh media. […]
(§3) Whole-cell patch-clamp experiments with K2P2.1(TREK-1) and mutants were carried out 24-48 h after transfection. […] Data were analyzed using Clampfit 11 and GraphPad Prism 9.

[2] = molecular target: T2, A286F TREK-1^CG* (Mus musculus, UniProt P97438, A301F/S146C); experiment: as above; format: cell-based; conditions: 20 μM CAT335
T2 construct: expressed in transfected cells; host or cells: Xenopus laevis oocytes injected with mRNA
T2 sequence (P97438 1-411 isoform P97438-2 S131C/A286F): T1 sequence (P97438 1-411 isoform P97438-2 S131C) with A286F
Excerpt: as §1, §2, §3

- Change of resting membrane potential (ΔRMP) [1]: −6 mV
- Change of resting membrane potential (ΔRMP) [2]: −27 mV
SMILES: O=C(NCc1ccc(Cl)cc1Cl)c1ccc(N2C(=O)C=CC2=O)cc1 [CAT335]
